# Legend:
# naïve mice = experiment: toxicity and Treg phenotype in naïve mice; format: in vivo
# Method: B, FOXP3 MFI in WT and 22KO of Treg cells after treatment with 20 μg/kg of Usp22i-S02 in vivo (n=3). C, Representative flow cytometry plot of FOXP3+CD25+MFI of CD4+ peripheral cells of mice treated with 20 μg/kg of Usp22i-S 02 relative to control (n=5). D, Graphical representation of Foxp3 MFI upon Usp22i-S02 administration (n=5). E, Tumor growth curve of LLC1 cells subcutaneously injected in the flank of WT mice with or without the addition of 20 mg/kg/time of the Usp22 inhibitor starting at day 15, in 100 μL of oil (n=4). F-G, Representative flow cytometry plot and graphical representation of % infiltration of CD4+ and CD8+ T cells within the tumor (n=4). H, Representative histogram plot and graphical representation of intratumoral Treg (itTreg) Foxp3 MFI (n=4). I, MFI of itTreg suppressive markers (n=3-4). J, Percent Foxp3+IFNg+itTreg cells in control and Usp22-S02 treated mice (n=3-4). B, D-E, G, H-I Two-way ANOVA with multiple comparisons between rows was performed to determine statistical significance. J, Unpaired two tailed T test was performed to determine significance. All data are presented as mean±stdev. NS, not significant. *P<0.05, **P<0.01, ***P<0.001, ****P<0.0001.
# A, Body weight of Usp22i-S02 treated mice verses DMSO treated controls over the course of treatment (n=4). A-F. Injections were twice a day for 3 consecutive days at 10 μg/kg (n=4). B, Percent of cell populations in naïve mice treated with Usp22i-S02 relative to DMSO control (n=3-4). […] D, Percent CD44^hiCD62L^lo in T cell populations gated on CD45+ cells in naïve mice treated with Usp22i-S02 relative to DMSO control (n=3). E, Percent Annexin+PI+ T cells gates on CD45+ cells in naïve mice treated with Usp22i-S02 relative to DMSO control (n=4). F-H, Organ toxicity panel (VetScan VS2 Comprehensive Diagnostic Rotor lot 1061AA2) of naïve mice treated with Usp22i-S02 relative to DMSO control (n=2-3). I, Growth curve of subcutaneously injected LLC1 in WT mice treated with Usp22i-S02 at 10 μg/kg (n=5-10). I-Q, Injections were twice a day for 5 consecutive days at 10 μg/kg. J, Weights of resected tumors at day 16 from I (n=10). K-L, Representative flow plot and graphical representation of infiltrating T cells gated on CD45+ cells (n=5). M-P, Characterization of intratumoral CD8+ T cells frome mice treated with Usp22i-S02 (n=3-5). Q, Percent of intratumoral Treg cells from mice treated with Usp22i-S02 verses DMSO control, gated on CD4+Foxp3+ from mice (n=5). A-E, I and L, Two-way ANOVA with Sidaks's multiple comparisons between rows relative to control was performed to determine statistical significance. F-H, J, and M-Q, Two-tailed unpaired t-test was performed to determine statistical significance. All data are presented as mean±stdev. NS, not significant. *P<0.05, **P<0.01, ***P<0.001, ****P<0.0001.
# An important aspect of a potential immunotherapeutic is its antitumor functionality paired with low immune toxicity. To determine the toxicity of Usp22i-S02 in vivo, we first determined its effects in naïve mice.
# [1] = test system: Foxp3 in human Treg cells; experiment: Foxp3 MFI of human Treg cells; format: cell-based; details: low doses
# Method: FIG. 6: Usp22i-S02 halts Usp22-mediated Foxp3 deubiqutination. A, Graphical representation of Foxp3 MFI change in WT versus 22KO iTreg cells treated with various doses of Usp22i-S02 (n=3). B, Representative histogram of Foxp3 MFI level in iTreg cells as Usp22 inhibitor concentration increases from 0-20 μg/mL. C, Cell survival of iTreg cells treated with various doses of Usp22i-S02 (n=3). D, FOXP3 and USP22 protein level in WT and 22KO mice treated with 10 μg/mL Usp22i-S02. E-F, Graphical and representative data of Foxp3 MFI of human Treg cells treated with various doses of Usp22i-S02 (n=3). G, Graphical representation of Foxp3 MFI in WT, Usp21-null, and Usp22-null Treg cells treated with Usp22i-S02 at 10 μg/mL (n=3). H, FOXP3 and USP22 protein degradation of cycloheximide (10 μg/mL) treated iTreg cells with or without the addition of 10 μg/mL of Usp22i-S02. I-J, Endogenous DUB assay IP in iTreg cells of USP22 with FOXP3 under increasing concentrations of Usp22i-S02. K, Foxp3 mRNA level in iTreg cells as Usp22 inhibitor concentration increases from 0-20 μg/mL (n=3). L, FOXP3 and USP22 level in WT iTreg cells with or without 20 μg/mL Usp22 inhibitor treated with 20 μM MG132. M, Graphical representation of the percentage of decrease of Foxp3 MFI in either WT or Usp22-null nTreg cells placed in low glucose conditions with or without the addition of 10 μg/mL of Usp22i-S02 (n=7-8). […]
# [2] = test system: FoxP3 and PD-L1 expression; experiment: biological screening of FoxP3 and PD-L1 expression; format: cell-based; details: inhibition of FoxP3 and PD-L1 expression
# Method: Biological screening confirmed that USP22i-S02 inhibited the expression of FoxP3 and PD-L1 expression in a USP22-dependent manner. The IC50 is about 6-7 uM. […] In particular, modifications at the R position at A-Ring, or R1 and R2 at E-Ring are likely to improve its biological activity. Therefore, we used the SYBYL drug design software and generated a chemical library of 40400 derivatives (named as USP22-S02X) by modifying the A or/and E ring with 200 functional groups at the R or R1 or R2 or two of the three positions.
structure (smiles),measurement,setting,value
"N#Cc1c2c(c(Nc3ccccc3)n3c1nc1ccccc13)CCCC2 [USP22i-S02, 11-anilino-7,8,9,10-tetrahydrobenzimidazo[1,2-b]isoquinoline-6-carbonitrile]",FOXP3 MFI in Usp22-KO mice,"naïve mice; Usp22-KO mice, 20 μg/kg",no additional decrease to FOXP3 MFI
same,FOXP3 MFI in Treg cells from spleen and lymph nodes,"naïve mice; WT mice, 20 μg/kg",significant drop in FOXP3 MFI
same,Treg cell death,naïve mice; naïve mice,significantly increased
same,Treg percentage,naïve mice; naïve mice,decrease in Treg percentage
same,Treg proliferation,naïve mice; naïve mice,also increased
same,organ toxicity (comprehensive tissue panel),naïve mice; naïve mice versus DMSO control,no organ toxicity differences
same,"weights, B cell and Teff cell percentages and proliferation, Teff cell activation","naïve mice; naïve mice versus DMSO-treated control, twice a day for 3 days at 10 μg/kg",little alteration
same,Foxp3 MFI in human Treg cells,[1],significantly decreased Foxp3 MFI
same,viability of human Treg cells,[1],little effect to cell viability
same,IC50,[2],6 to 7 µM
